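A five-concentration, 48-hour dose response in 96-well plates underlies each endpoint, interpolated linearly between surrounding concentrations. At the GI50, growth is halved.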 Activity calls are given as the source filed them. Cut-off read from the data, not from the text of the source: active = GI50 up to about 1.1 µM and inactive = higher.
Key:
Assay in all cases: growth of human tumour cells (NCI), 48 h
IGROV-1 = system: IGROV-1
UACC-62 = system: UACC-62
M14 = system: M14
HCC 2998 = system: HCC 2998
A498 = system: A498
CAKI-1 = system: CAKI-1
SF-268 = system: SF-268
RXF 393 = system: RXF 393
MDA-MB-435 = system: MDA-MB-435
SN12C = system: SN12C
Hs-578T = system: Hs-578T
SNB-75 = system: SNB-75
SK-MEL-5 = system: SK-MEL-5
SK-MEL-28 = system: SK-MEL-28
HL-60 = system: HL-60
SF-539 = system: SF-539
HCT-116 = system: HCT-116
ACHN = system: ACHN
MDA-N = system: MDA-N
HOP-92 = system: HOP-92
RPMI-8226 = system: RPMI-8226
SNB-19 = system: SNB-19
HOP-62 = system: HOP-62
HCT-15 = system: HCT-15
K562 = system: K562
786-0 = system: 786-0
T47D = system: T47D
TK-10 = system: TK-10
HT-29 = system: HT-29
LOX IMVI = system: LOX IMVI
U-251 = system: U-251
PC-3 = system: PC-3
UACC-257 = system: UACC-257
OVCAR-8 = system: OVCAR-8
EKVX = system: EKVX
SF-295 = system: SF-295
SW-620 = system: SW-620
MCF7 = system: MCF7
UO-31 = system: UO-31
MOLT-4 = system: MOLT-4
A549 = system: A549
OVCAR-3 = system: OVCAR-3
KM12 = system: KM12
NCI-H23 = system: NCI-H23
MDA-MB-231 = system: MDA-MB-231
CCRF-CEM = system: CCRF-CEM
SK-OV-3 = system: SK-OV-3
NCI-H226 = system: NCI-H226
NCI-H460 = system: NCI-H460
Malme-3M = system: Malme-3M
COLO 205 = system: COLO 205
NCI-H522 = system: NCI-H522
NCI/ADR-RES = system: NCI/ADR-RES
DU-145 = system: DU-145
BT-549 = system: BT-549
SK-MEL-2 = system: SK-MEL-2
SR = system: SR
OVCAR-5 = system: OVCAR-5
OVCAR-4 = system: OVCAR-4

O=c1oc2ccccc2cc1-c1nc2ccc([N+](=O)[O-])cc2o1
GI50 (IGROV-1): > 100 µM (inactive)
GI50 (UACC-62): > 100 µM (inactive)
GI50 (M14): > 100 µM (inactive)
GI50 (HCC 2998): > 100 µM (inactive)
GI50 (A498): > 100 µM (inactive)
GI50 (CAKI-1): > 100 µM (inactive)
GI50 (SF-268): > 100 µM (inactive)
GI50 (RXF 393): > 100 µM (inactive)
GI50 (MDA-MB-435): > 100 µM (inactive)
GI50 (SN12C): > 100 µM (inactive)
GI50 (Hs-578T): 84.9 µM (inactive)
GI50 (SNB-75): > 100 µM (inactive)
GI50 (SK-MEL-5): > 100 µM (inactive)
GI50 (SK-MEL-28): > 100 µM (inactive)
GI50 (HL-60): > 100 µM (inactive)
GI50 (SF-539): 65.2 µM (inactive)
GI50 (HCT-116): > 100 µM (inactive)
GI50 (ACHN): 30.1 µM (inactive)
GI50 (MDA-N): > 100 µM (inactive)
GI50 (HOP-92): > 100 µM (inactive)
GI50 (RPMI-8226): > 100 µM (inactive)
GI50 (SNB-19): 30.2 µM (inactive)
GI50 (HOP-62): 28.1 µM (inactive)
GI50 (HCT-15): > 100 µM
GI50 (K562): > 100 µM (inactive)
GI50 (786-0): > 100 µM (inactive)
GI50 (T47D): > 100 µM (inactive)
GI50 (TK-10): > 100 µM (inactive)
GI50 (HT-29): 67.6 µM (inactive)
GI50 (LOX IMVI): > 100 µM (inactive)
GI50 (U-251): > 100 µM (inactive)
GI50 (PC-3): > 100 µM (inactive)
GI50 (UACC-257): > 100 µM (inactive)
GI50 (OVCAR-8): > 100 µM (inactive)
GI50 (EKVX): > 100 µM (inactive)
GI50 (SF-295): 83.4 µM (inactive)
GI50 (SW-620): > 100 µM (inactive)
GI50 (MCF7): 83.8 µM (inactive)
GI50 (UO-31): > 100 µM (inactive)
GI50 (MOLT-4): > 100 µM (inactive)
GI50 (A549): > 100 µM (inactive)
GI50 (OVCAR-3): > 100 µM (inactive)
GI50 (KM12): > 100 µM (inactive)
GI50 (NCI-H23): > 100 µM (inactive)
GI50 (MDA-MB-231): > 100 µM (inactive)
GI50 (CCRF-CEM): > 100 µM (inactive)
GI50 (SK-OV-3): > 100 µM (inactive)
GI50 (NCI-H226): > 100 µM (inactive)
GI50 (NCI-H460): > 100 µM (inactive)
GI50 (Malme-3M): > 100 µM (inactive)
GI50 (COLO 205): > 100 µM (inactive)
GI50 (NCI-H522): > 100 µM (inactive)
GI50 (NCI/ADR-RES): > 100 µM (inactive)
GI50 (DU-145): > 100 µM (inactive)
GI50 (BT-549): > 100 µM (inactive)
GI50 (SK-MEL-2): > 100 µM (inactive)
GI50 (SR): > 100 µM (inactive)

CC(=O)Oc1ccc(/C=C/C(=O)OCCCOC(=O)/C=C/c2ccc(OC(C)=O)c(OC(C)=O)c2)cc1OC(C)=O
GI50 (IGROV-1): > 100 µM (inactive)
GI50 (UACC-62): > 100 µM (inactive)
GI50 (M14): > 100 µM (inactive)
GI50 (OVCAR-5): > 100 µM (inactive)
GI50 (HCC 2998): > 100 µM (inactive)
GI50 (A498): > 100 µM (inactive)
GI50 (CAKI-1): > 100 µM (inactive)
GI50 (SF-268): > 100 µM (inactive)
GI50 (RXF 393): > 100 µM (inactive)
GI50 (MDA-MB-435): > 100 µM (inactive)
GI50 (SN12C): > 100 µM (inactive)
GI50 (Hs-578T): > 100 µM (inactive)
GI50 (SNB-75): > 100 µM (inactive)
GI50 (SK-MEL-5): > 100 µM (inactive)
GI50 (SK-MEL-28): > 100 µM (inactive)
GI50 (HL-60): < 0.01 µM (active)
GI50 (SF-539): > 100 µM (inactive)
GI50 (HCT-116): 58.1 µM (inactive)
GI50 (ACHN): > 100 µM (inactive)
GI50 (MDA-N): > 100 µM (inactive)
GI50 (HOP-92): > 100 µM (inactive)
GI50 (RPMI-8226): > 100 µM (inactive)
GI50 (SNB-19): > 100 µM (inactive)
GI50 (HOP-62): 51.2 µM (inactive)
GI50 (HCT-15): > 100 µM
GI50 (K562): > 100 µM (inactive)
GI50 (786-0): 93.1 µM (inactive)
GI50 (T47D): > 100 µM (inactive)
GI50 (TK-10): > 100 µM (inactive)
GI50 (HT-29): > 100 µM (inactive)
GI50 (LOX IMVI): > 100 µM (inactive)
GI50 (OVCAR-4): > 100 µM (inactive)
GI50 (U-251): > 100 µM (inactive)
GI50 (PC-3): > 100 µM (inactive)
GI50 (UACC-257): > 100 µM (inactive)
GI50 (OVCAR-8): > 100 µM (inactive)
GI50 (EKVX): > 100 µM (inactive)
GI50 (SF-295): 77.4 µM (inactive)
GI50 (SW-620): > 100 µM (inactive)
GI50 (MCF7): > 100 µM (inactive)
GI50 (UO-31): > 100 µM (inactive)
GI50 (MOLT-4): > 100 µM (inactive)
GI50 (A549): > 100 µM (inactive)
GI50 (OVCAR-3): > 100 µM (inactive)
GI50 (KM12): > 100 µM (inactive)
GI50 (NCI-H23): > 100 µM (inactive)
GI50 (MDA-MB-231): > 100 µM (inactive)
GI50 (SK-OV-3): > 100 µM (inactive)
GI50 (NCI-H460): > 100 µM (inactive)
GI50 (Malme-3M): > 100 µM (inactive)
GI50 (COLO 205): > 100 µM (inactive)
GI50 (NCI-H522): > 100 µM (inactive)
GI50 (NCI/ADR-RES): > 100 µM (inactive)
GI50 (DU-145): > 100 µM (inactive)
GI50 (BT-549): > 100 µM (inactive)
GI50 (SK-MEL-2): > 100 µM (inactive)
GI50 (SR): > 100 µM (inactive)
